Structures can show the parent of a compound that is named as a salt.
Columns and labels:
[1] = Inhibition of Bacillus stearothermophilus alpha-glucosidase; design: species or system Geobacillus stearothermophilus
[2] = Inhibition of Saccharomyces cerevisiae alpha-glucosidase
[3] = Stability in artificial gastric juice at 10 mM after 48 hrs; type: physicochemical; details: simulated gi fluid, 10000 µM
[4] = Stability in artificial intestinal juice at 10 mM after 12 hrs; type: physicochemical; details: simulated gi fluid, 10000 µM

| IC50 [1] | IC50 [2] | Stability [3] | Stability [4] | SMILES |
| --- | --- | --- | --- | --- |
| 2 µM | 1 µM | – | – | CCCCCCCC[C@@H]1OC(=O)[C@]2(C[C@@H](OC(=O)/C=C/c3ccc(O)c(O)c3)[C@@H]3O[C@H](CCCCCCCC)O[C@@H]3C2)O1 |
| 1.8 µM | 0.8 µM | – | – | CCCCCCCC[C@@H]1O[C@H]2[C@H](OC(=O)/C=C/c3ccc(O)c(O)c3)C[C@]3(C[C@H]2O1)O[C@H](CCCCCCCC)OC3=O |
| 5.1 µM | 3 µM | – | – | CCCCCCCCC1(CCCCCCCC)OC(=O)[C@@]2(C[C@@H](O)[C@@H](O)[C@H](OC(=O)/C=C/c3ccc(O)c(O)c3)C2)O1 |
| 154 µM | 391 µM | – | – | CC1(C)O[C@H]2[C@H](OC(=O)/C=C/c3ccc(O)c(O)c3)C[C@]3(C[C@H]2O1)OC(C)(C)OC3=O |
| 14.2 µM | 3.6 µM | – | – | CCCCCC1(CCCCC)OC(=O)[C@@]2(C[C@@H](O)[C@@H](O)[C@H](OC(=O)/C=C/c3ccc(O)c(O)c3)C2)O1 |
| 3.9 µM | 3.4 µM | – | – | CCCCCCC1(CCCCCC)OC(=O)[C@@]2(C[C@@H](O)[C@@H](O)[C@H](OC(=O)/C=C/c3ccc(O)c(O)c3)C2)O1 |
| 10.9 µM | 3.3 µM | – | – | CCCCCCCC[C@@H]1OC(=O)[C@@]2(C[C@@H](O)[C@@H](O)[C@H](OC(=O)/C=C/c3ccc(O)c(O)c3)C2)O1 |
| 2540 µM | 114 µM | – | – | CC1(C)OC(=O)[C@@]2(C[C@@H](O)[C@@H](O)[C@H](OC(=O)/C=C/c3ccc(O)c(O)c3)C2)O1 |
| 44.9 µM | 26.5 µM | – | – | CCC1(CC)O[C@H]2[C@H](OC(=O)/C=C/c3ccc(O)c(O)c3)C[C@]3(C[C@H]2O1)OC(CC)(CC)OC3=O |
| 14.4 µM | 3.4 µM | – | – | CCCCC1(CCCC)OC(=O)[C@@]2(C[C@@H](O)[C@@H](O)[C@H](OC(=O)/C=C/c3ccc(O)c(O)c3)C2)O1 |
| 12.5 µM | 3.6 µM | – | – | CCCCCCCC[C@H]1OC(=O)[C@@]2(C[C@@H](O)[C@@H](O)[C@H](OC(=O)/C=C/c3ccc(O)c(O)c3)C2)O1 |
| 29.6 µM | 18.5 µM | – | – | CC1(C)OC2Cc3c(O)cc(O)cc3O[C@@H]2c2cc(O)c(O)cc21 (some centres undefined) |
| 3.6 µM | 4.3 µM | – | – | CCCCCCCC1(CCCCCCC)OC(=O)[C@@]2(C[C@@H](O)[C@@H](O)[C@H](OC(=O)/C=C/c3ccc(O)c(O)c3)C2)O1 |
| 0.8 µM | 0.3 µM | – | – | CCCCCCCC[C@H]1O[C@H]2[C@H](OC(=O)/C=C/c3ccc(O)c(O)c3)C[C@]3(C[C@H]2O1)O[C@@H](CCCCCCCC)OC3=O |
| 0.8 µM | 0.5 µM | – | – | CCCCCCC1(CCCCCC)O[C@H]2[C@H](OC(=O)/C=C/c3ccc(O)c(O)c3)C[C@]3(C[C@H]2O1)OC(CCCCCC)(CCCCCC)OC3=O |
| 0.9 µM | 0.4 µM | – | – | CCCCCCCC1(CCCCCCC)O[C@H]2[C@H](OC(=O)/C=C/c3ccc(O)c(O)c3)C[C@]3(C[C@H]2O1)OC(CCCCCCC)(CCCCCCC)OC3=O |
| 0.9 µM | 0.5 µM | – | – | CCCCCCCCC1(CCCCCCCC)O[C@H]2[C@H](OC(=O)/C=C/c3ccc(O)c(O)c3)C[C@]3(C[C@H]2O1)OC(CCCCCCCC)(CCCCCCCC)OC3=O |
| 1.1 µM | 0.8 µM | – | – | CCCCCC1(CCCCC)O[C@H]2[C@H](OC(=O)/C=C/c3ccc(O)c(O)c3)C[C@]3(C[C@H]2O1)OC(CCCCC)(CCCCC)OC3=O |
| 0.8 µM | 0.3 µM | – | – | CCCCC1(CCCC)O[C@H]2[C@H](OC(=O)/C=C/c3ccc(O)c(O)c3)C[C@]3(C[C@H]2O1)OC(CCCC)(CCCC)OC3=O |
| 0.7 µM | 0.3 µM | Stable | Stable | CCCCCCCC[C@@H]1O[C@H]2[C@H](OC(=O)/C=C/c3ccc(O)c(O)c3)C[C@]3(C[C@H]2O1)O[C@@H](CCCCCCCC)OC3=O |
| 5.5 µM | 3.3 µM | – | – | CCCC1(CCC)O[C@H]2[C@H](OC(=O)/C=C/c3ccc(O)c(O)c3)C[C@]3(C[C@H]2O1)OC(CCC)(CCC)OC3=O |
| 62.2 µM | 19.4 µM | – | – | CCCC1(CCC)OC(=O)[C@@]2(C[C@@H](O)[C@@H](O)[C@H](OC(=O)/C=C/c3ccc(O)c(O)c3)C2)O1 |
| 128 µM | 71.1 µM | – | – | CCC1(CC)OC(=O)[C@@]2(C[C@@H](O)[C@@H](O)[C@H](OC(=O)/C=C/c3ccc(O)c(O)c3)C2)O1 |
| 0.1 µM | 0.1 µM | – | – | C[C@H]1O[C@H](O[C@H]2[C@H](O)[C@@H](O)[C@@H](O[C@H]3[C@H](O)[C@@H](O)C(O)O[C@@H]3CO)O[C@@H]2CO)[C@H](O)[C@@H](O)[C@@H]1N[C@H]1C=C(CO)[C@@H](O)[C@H](O)[C@H]1O (some centres undefined) [ACARBOSE] |
| 2820 µM | > 2820 µM | – | – | O=C(/C=C/c1ccc(O)c(O)c1)O[C@@H]1C[C@](O)(C(=O)O)C[C@@H](O)[C@H]1O [CHLOROGENIC ACID] |
| 2.4 µM | 1.8 µM | – | – | OC[C@H]1NC[C@H](O)[C@@H](O)[C@@H]1O [DUVOGLUSTAT HYDROCHLORIDE] |

Source: ChEMBL document CHEMBL1140104, “Chlorogenic acid derivatives with alkyl chains of different lengths and orientations: potent alpha-glucosidase inhibitors” (J Med Chem, 2008)
